Reference: US20110150980A1, “CGRP ANALOG” (VasoGenix Pharmaceuticals, Inc., priority 2009, published 2011)
Like-named read-outs stand apart in the source and are kept apart here. Bridges are numbered along the chain shown (N, C = ends). Where no end group is shown, it is not given here.

Experiments:
[1] = test system: patients; details: cited from earlier work
[2] = test system: sedated Non Human Primate; assay: IV infusion in the sedated Non Human Primate: blood pressure and heart rate (Example 1); type: in vivo; details: for Heart rate (HR) effect: at the 28 ng dose
[3] = molecular target: T1, CRLR/RAMP1 receptor (Homo sapiens, UniProt O60894+Q16602); assay: CRE-luciferase assay in HEK293T cells transfected with CRLR and RAMP1; type: cell-based; details: for activity and potency in binding to the CGRP receptor, CRE-Luciferase assay: compared to h-α-CGRP and h-β-CGRP as controls
T1 construct: All of the full-length cDNAs were subcloned into pcDNA3.1 expression vectors; expressed in transfected cells; host or cells: HEK293T, transient calcium phosphate transfection, pcDNA3.1 vectors
T1 sequence (Q16602 23-461): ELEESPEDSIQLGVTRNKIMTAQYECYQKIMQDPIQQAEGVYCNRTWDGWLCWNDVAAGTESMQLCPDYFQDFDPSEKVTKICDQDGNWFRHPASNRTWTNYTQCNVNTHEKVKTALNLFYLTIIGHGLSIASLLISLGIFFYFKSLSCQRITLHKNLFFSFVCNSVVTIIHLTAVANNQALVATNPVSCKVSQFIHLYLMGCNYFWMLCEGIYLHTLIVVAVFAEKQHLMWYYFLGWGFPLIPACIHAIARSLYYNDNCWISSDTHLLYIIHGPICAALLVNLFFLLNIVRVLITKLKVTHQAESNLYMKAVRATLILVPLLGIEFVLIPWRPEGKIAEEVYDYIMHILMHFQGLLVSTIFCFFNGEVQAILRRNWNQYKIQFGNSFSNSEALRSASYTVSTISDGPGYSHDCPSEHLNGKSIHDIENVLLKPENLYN
T1 sequence (O60894 27-148): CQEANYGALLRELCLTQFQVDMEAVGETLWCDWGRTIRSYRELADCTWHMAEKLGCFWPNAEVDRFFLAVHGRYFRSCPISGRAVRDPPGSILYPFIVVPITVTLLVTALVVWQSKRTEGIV
Excerpt: The expression vectors for RAMP1, RAMP2, RAMP3, CRLR, CRE-Luc and SRE-Luc were constructed as previously described (McLatchie L. M., et al. (1998) Nature 393:333-339). Human CRLR, RAMP1, and RAMP2 full-length cDNAs were cloned by RT-PCR using RNA obtained from HEK293T cells and CRLR, RAMP1, and RAMP2-specific primers. Human RAMP3 full-length cDNAs were cloned by RT-PCR using RNA from human kidney and RAMP3 specific primers. All of the full-length cDNAs were subcloned into pcDNA3.1 expression vectors.
Human embryonic kidney 293T cells (HEK293T) were maintained in Dulbecco's modified Eagle's medium supplemented with 10% fetal calf serum, 2 mM glutamine, […], at 37° C. in a humidified atmosphere of 95% air and 5% CO2. Transient transfections were performed using calcium phosphate co-precipitation (Mellon P. L., et al. (1981) Cell 27:279-288). Cells in six-well plates or 100-mm Petri dishes were grown to 70% confluence and transfected with 0.1 μg of DNA for CRLR, 0.05 μg for RAMPs or 1 μg for CRE-Luc and SRE-Luc per cm^2. The total amount of DNA transfected in each condition was kept constant by adding empty pcDNA3.1 vector when needed. Twenty hours after transfection, the medium was replaced with fresh medium containing 5 mM sodium butyrate for 24 h and then replaced for an additional 24 h with fresh medium without sodium butyrate. All of the experiments were performed 72 h after transfection to allow correct glycosylation and cell surface targeting of CRLR and RAMPs.
After exposure to various concentrations of CGRP or the CGRP analogs, the cells were lysed and assayed for CRE- or SRE-luciferase activity using the luciferase assay system (Promega), and luminescence was measured using a 96-well luminometer.
The mechanism of action for CGRP at the CRLR/RAMP1 receptor is known to up-regulate cAMP through the gs pathway, and to a lesser extent [Ca^2+] through the gq pathway. […] It is the cAMP pathway that is the primary mechanism of action of CGRP for vasodilation, cardio/renoprotection and immunomodulation.

[4] = test system: non-sedated, non-naïve cynomolgus monkeys; assay: Intravenous infusion in non-sedated, telemeterized non-human primates: blood pressure, heart rate, ECG (Example 2); type: in vivo
Experimental: Peptides were synthesized as in Example 1. […] Two non-naïve, telemeterized, male non-human primates (NHP “a” and “b”) were used for the test article(s) dosing regimen. […] Following a stabilized baseline period of approximately 30 minutes, one of the test article(s) was administered as an intravenous infusion via a femoral vein vascular access port (VAP) using a Pegasus PCA infusion pump for a period of 30 or 60 minutes. A minimum period of 30 minutes was allotted for the hemodynamic parameters to return to baseline prior to the next test article infusion dose. The process was repeated for each of the stated test articles. The same procedure was followed for the 1 hour infusion with 1 hour allotted for parameters to return to base line.
The non-human primates were previously surgically prepared with telemetry transducers, type TL11M2-D70-PCT (Data Sciences International). The acquisition and analysis was done using a Ponemah (Version 4.8 or higher) data acquisition and analysis system installed on the hard drive of a computer. The computer was equipped with disk drive for file back up on readable write-once only optical media (CD-R or DVD-R).
Prior to the first dose administration, baseline data was acquired. For each subsequent dose, data was collected for approximately 30 min postdose. Prior to the next dose, the hemodynamic parameters were allowed to return to a stable baseline±10%.
Systolic blood pressure (SYS or SBP), diastolic blood pressure (DBP), mean arterial pressure (MAP), heart rate (HR), and all lead II ECG variables were recorded. The telemetry data files were transferred to an Excel (MicroSoft® Version 2003) spreadsheet. The following variables from the lead II ECG were measured: PR interval, QRS duration, QT interval, RR interval, and QTcF interval (calculated as
A visual inspection of the entire collected ECG waveform for disturbances in rhythm and waveform morphology was performed. The data for selected time points were analyzed and assessed on completion of data acquisition and were the average of at least 30 beats (ABP and ECG) of data at the selected analysis time, when possible. The time points for both hemodynamic and ECG data analysis were an initial 30 min baseline prior to the first dose, at a 10 min during each infusion postdose interval relative to end of each infusion, and time points prior to the next test article infusion for each test compound.
Non-human primates were selected because they have the same RAMP 1-CGRP receptor complex as humans.

[5] = molecular target: CRLR/RAMP1 receptor (human, UniProt Q16602 23-461; O60894 27-148); assay: cell-based or functional assay
Sequence of CRLR/RAMP1 receptor (human, UniProt Q16602 23-461; O60894 27-148) (Q16602 23-461, chain 1 of 2): as the sequence (Q16602 23-461) above
Sequence of CRLR/RAMP1 receptor (human, UniProt Q16602 23-461; O60894 27-148) (O60894 27-148, chain 2 of 2): as the sequence (O60894 27-148) above

[6] = Anand et al.: short-term IV infusions (10 or 20 minutes) at 0.8, 3.2, or 16 ng/kg/min
[7] = Sekhar et al.: 8 ng/kg/min by IV infusion for 8 hours
[8] = Stephenson et al.: 600 ng/min, 2-8 hour infusions for two consecutive days
[9] = NHP a, dose day 2, during 30 minute infusions of 0.024 ug/kg/min
[10] = NHP a, dose day 3, during 30 minute infusions of 0.024 ug/kg/min
[11] = NHP a, dose day 3, during 1 hour infusion of 0.024 ug/kg/min
[12] = NHP b, dose day 2, during 30 minute infusions of 0.024 ug/kg/min
[13] = NHP b, dose day 3, during 30 minute infusions of 0.024 ug/kg/min
[14] = NHP b, dose day 3, during 1 hour infusion of 0.024 ug/kg/min
[15] = average of a 2, b 2, a 3, b 3, during 30 minute infusions of 0.024 ug/kg/min
[16] = average of a3, b3, during 1 hour infusion of 0.024 ug/kg/min

Molecule: CGRP
- hemodynamic effects [1, 6]: beneficial hemodynamic effects such as decreased systemic vascular resistance and increase in cardiac output
- tachycardia [1, 6]: no tachycardia observed
- renal blood flow and glomerular filtration ([1]; Sekhar et al.: 8 ng/kg/min by IV infusion for 8 hours, during treatment): increased
- hemodynamic effects [1, 7]: beneficial hemodynamic effects such as decreased pulmonary and systemic arterial pressure, decreased vascular resistance and increased cardiac output
- time after stopping infusion within which hemodynamic effects were lost [1, 7]: ≤ 30 min
- side effects of pulsed therapy [1, 8]: unfavorable side effects of tachycardia and neurohumoral response were also observed
- tolerability and hemodynamic functions, pulsed therapy [1, 8]: well tolerated and was observed to improve hemodynamic functions such as left ventricular function
- tolerability of continuous infusion therapy ([1]; Stephenson et al.: 600 ng/min, 48-hour continuous IV-infusion): infusion was discontinued after 28 hours in 3 out of the 6 patients due to nausea, diarrhea, and/or severe facial flushing

Molecule: Cyc-ACDTATCVTHRLADLLSRSGGVVKSNFVPTNVGSKAF-NH2 (disulfide 2-7 (inferred)) [Peptide IX]
- Heart rate (HR) effect [2]: increased heart rate but less than CGRP
- potency in CRE-Luciferase assay ([3]; at a concentration of 10^−10 molar): more potent
- activity and potency in binding to the CGRP receptor, CRE-Luciferase assay [3]: as equally active and potent as h-α-CGRP and h-β-CGRP

Molecule: Cyc-ACDTATCVTHRLAGLLSRSGGVVKSNFVPTNVGSKAF-NH2 (disulfide 2-7 (inferred)) [Peptide III]
- Heart rate (HR) effect [2]: increased heart rate but less than CGRP
- activity and potency in binding to the CGRP receptor, CRE-Luciferase assay [3]: as equally active and potent as h-α-CGRP and h-β-CGRP

Molecule: Cyc-ACNTATCVTHRLAGLLSRSGGVVKSNFVPTNVGSKAF-NH2 (disulfide 2-7 (inferred)) [Peptide V]
- Heart rate effect ([2]; at any of the tested doses): no increase in heart rate
- increase in heart rate (HR) compared to the control CGRP ([2]; sedated Non Human Primate, IV for 5 minutes at 29/ng/kg/min): reduced increase in heart rate
- activity and potency in binding to the CGRP receptor, CRE-Luciferase assay [3]: as equally active and potent as h-α-CGRP and h-β-CGRP
- Percent change in HR, a 2 [4, 9]: −19.8%
- Percent change in mean BP, a 2 [4, 9]: −20.0%
- Percent change in systolic BP, a 2 [4, 9]: −16.2%
- Percent change in HR, a 3 [4, 10]: −22.2%
- Percent change in mean BP, a 3 [4, 10]: −8.8%
- Percent change in systolic BP, a 3 [4, 10]: −6.8%
- Percent change in HR at 30 minutes, a3 [4, 11]: −22.2%
- Percent change in HR at 60 minutes, a3 1 hr [4, 11]: −5.8%
- Percent change in mean systolic BP at 30 minutes, a3 [4, 11]: −8.8%
- Percent change in mean systolic BP at 60 minutes, a3 1 hr [4, 11]: −5.3%
- Percent change in systolic BP at 30 minutes, a3 [4, 11]: −6.8%
- Percent change in systolic BP at 60 minutes, a3 1 hr [4, 11]: −5.8%
- Percent change in HR, b 2 [4, 12]: −13.1%
- Percent change in mean BP, b 2 [4, 12]: −28.6%
- Percent change in systolic BP, b 2 [4, 12]: −27.2%
- Percent change in HR, b 3 [4, 13]: −37.3%
- Percent change in mean BP, b 3 [4, 13]: −26.4%
- Percent change in systolic BP, b 3 [4, 13]: −23.9%
- Percent change in HR at 30 minutes, b3 [4, 14]: −37.3%
- Percent change in HR at 60 minutes, b3 1 hr [4, 14]: 14.5%
- Percent change in mean systolic BP at 30 minutes, b3 [4, 14]: −26.4%
- Percent change in mean systolic BP at 60 minutes, b3 1 hr [4, 14]: 2.4%
- Percent change in systolic BP at 30 minutes, b3 [4, 14]: −23.9%
- Percent change in systolic BP at 60 minutes, b3 1 hr [4, 14]: 2.8%
- Percent change in mean HR, a 2 ([4]; Table 14, NHP a, dose day 2, during 30 minute infusions of 0.024 ug/kg/min): −19.8%
- Percent change in mean HR, a 3 ([4]; Table 14, NHP a, dose day 3, during 30 minute infusions of 0.024 ug/kg/min): −22.2%
- Percent change in mean HR, b 2 ([4]; Table 14, NHP b, dose day 2, during 30 minute infusions of 0.024 ug/kg/min): −13.1%
- Percent change in mean HR, b 3 ([4]; Table 14, NHP b, dose day 3, during 30 minute infusions of 0.024 ug/kg/min): −37.3%
- Percent change in mean HR, HR ([4]; Table 14, average of a 2, b 2, a 3, b 3, during 30 minute infusions of 0.024 ug/kg/min): −23.1%
- Percent change in mean HR at 30 minutes, a3 ([4]; Table 24, NHP a, dose day 3, during 1 hour infusion of 0.024 ug/kg/min): −22.2%
- Percent change in mean HR at 30 minutes, b3 ([4]; Table 24, NHP b, dose day 3, during 1 hour infusion of 0.024 ug/kg/min): −37.3%
- Percent change in mean HR at 30 minutes, HR T30 ([4]; Table 24, average of a3, b3, during 1 hour infusion of 0.024 ug/kg/min): −29.8%
- Percent change in mean HR at 60 minutes, a3 1 hr ([4]; Table 25, NHP a, dose day 3, during 1 hour infusion of 0.024 ug/kg/min): −5.8%
- Percent change in mean HR at 60 minutes, b3 1 hr ([4]; Table 25, NHP b, dose day 3, during 1 hour infusion of 0.024 ug/kg/min): 14.5%
- Percent change in mean HR at 60 minutes, HR T60 ([4]; Table 25, average of a3, b3, during 1 hour infusion of 0.024 ug/kg/min): 4.4%
- Percent change in HR, HR [4, 15]: −23.1%
- Percent change in mean BP, BP [4, 15]: −21.0%
- Percent change in systolic BP, BP [4, 15]: −18.5%
- Percent change in HR at 30 minutes, HR T30 [4, 16]: −29.8%
- Percent change in HR at 60 minutes, HR T60 [4, 16]: 4.4%
- Percent change in mean systolic BP at 30 minutes, BP T30 [4, 16]: −17.6%
- Percent change in mean systolic BP at 60 minutes, BP T60 [4, 16]: −1.5%
- Percent change in systolic BP at 30 minutes, T30 [4, 16]: −15.4%
- Percent change in systolic BP at 60 minutes, T60 [4, 16]: −1.5%
- reduction of BP and HR (Tables 8, 13 and 14, FIG. 11) ([4]; mean BP and HR, 30 minute infusions, 0.024 ug/kg/min): reduced both BP and HR to a greater extent than the positive control αCGRP
- effect on heart rate ([4]; non-sedated cynomolgus monkeys, IV infusion): maintenance of pre-administration heart rate, and in some cases, reduction in heart rate
- reduction of BP and HR (Tables 8-10, FIG. 10) ([4]; systolic BP and HR, 30 minute infusions, 0.024 ug/kg/min): reduced BP and HR to a greater extent than αCGRP and βCGRP

B1: Peptide III, [Ser25] h-α-CGRP (peptide)
peptide: ACDTATCVTHRLAGLLSRSGGVVKSNFVPTNVGSKAF-NH2
modifications: disulfide 2-7 (inferred); also: acetate salt
- CRE-Luciferase assay: concentration at which receptors were saturated [5]: 100 nM

B2: Peptide IX, [Asp14, Ser25] h-α-CGRP (peptide)
peptide: ACDTATCVTHRLADLLSRSGGVVKSNFVPTNVGSKAF-NH2
modifications: disulfide 2-7 (inferred); also: acetate salt
- CRE-Luciferase activity at 10^-10 molar, fold over analogs III and V, h-α-CGRP and h-β-CGRP [5]: 1.5 fold
- CRE-Luciferase assay: concentration at which receptors were saturated [5]: 100 nM

B3: Peptide V, [Asn3, Ser25] h-α-CGRP (peptide)
peptide: ACNTATCVTHRLAGLLSRSGGVVKSNFVPTNVGSKAF-NH2
modifications: disulfide 2-7 (inferred); also: acetate salt
- CRE-Luciferase assay: concentration at which receptors were saturated [5]: 100 nM
